In patent US20230302033A1, “FORMULATIONS OF NICOTINIC ACID DERIVATIVES AND FLAVONOID POLYPHENOLS AND USES THEREOF” (Animal Biosciences, Inc., priority 2021, published 2023):
“Also recorded” adds a separate entry of the source.

Tests used:
male Beagle dogs = assay: Seven day repeat dose tolerability study of NaR; type: in vivo, Canis familaris (dog)/Beagle; conditions: oral capsule, 10, 20 and 30 mg/kg/day for seven days
Protocol: The objective of this study was to evaluate the tolerability and pharmacokinetic profile following 7-days of repeat dose administration of NaR.
NaR is provided as 100 mg capsule, size 4, stored at 18-26° C., and fisetin is provided as 100 mg capsule, size 0, stored at 18-26° C. Canis familaris (dog)/Beagle—nine non-naïve males, age 1-3 years, weight 7-11 kg.
(§1) The appropriate number of NaR capsules were administered once daily to non-naïve male beagle dogs. Capsules were followed by at least 5 mL of tap water to ensure complete delivery. Animals were fed approximately 2 hours prior to dosing, with food removed approximately 2 hours post-dose. Samples for bioanalysis were collected during the pre-dose period (Day −7; based on Time Zero of 9 am) at 0, 0.25, 0.5, 1, 2, 4, 6, 8, 12, and 24 hours post-Time Zero. Samples were collected on Day 1 and 7 at 0, 0.25, 0.5, 1, 2, 4, 6, 8, 12, and 24 hours post dose, and on Days 3-5 at 2 hours post dose. Samples were analyzed for NAD+ using a bioassay.

NAD+ = assay: Treated whole blood NAD+ pharmacokinetics after 7-day oral NaR (Examples 1 and 4); type: in vivo, Canis familaris (dog)/Beagle
Protocol: as §1
A non-compartmental Pharmacokinetic (PK) approach consistent with oral route of administration was used to estimate PK parameters in Watson LIMS (version 7.5). All parameters were generated from individual concentrations in treated whole blood whenever practical. Mean values for each dose group were also reported. All concentration values were in ng/mL, and all time points were in hours. Nominal dose concentrations and sampling times were used. The observed maximum treated whole blood concentration (Cmax), time of Cmax (Tmax), and AUC (area under the concentration vs. time curve) were determined directly from the data during the entire 24 hour time interval post dosing. The dose levels were either 10, 20, or 30 mg/kg/day (Groups 1, 2, and 3, respectively). PK samples were collected on days −7 predose, 1 and 7 post dose, of a seven day once daily study. Samples on days 3, 4, and 5 postdose, at only one timepoint were collected but not included in PK parameter estimation.
Whenever possible, standard deviation and coefficient of variation determined by Watson LIMS were used. For analyses that were not supported by Watson, i.e. custom comparisons, Excel was used, and the statistics were reported as determined by Excel algorithms.

purpose-bred beagles = assay: Tolerability of orally administered NaR, single dose escalation and 7-day repeat dosing; type: in vivo
Protocol: The tolerability of NaR administered orally was determined in a two-phase laboratory study in purpose-bred beagles (male and female, 6.3-9.2 kg, 6 months old at the start of the study). The first phase of the study included single dose escalations of 100, 300, 1000 and 2000 mg/kg (n=4 per group). The second phase tested repeat dosing consisting of daily dosing over seven days of 100, 300 and 1000 mg/kg (n=6 per group). Administration occurred via oral gavage with an 18 French catheter into the stomach. The animals were assigned to groups by a stratified randomization scheme designed to achieve similar group mean body weights. Males and females were randomized separately.

[1] = tested on: mature purpose-bred beagles and mongrels; assay: Activity and safety of orally administered NaR, 28-day placebo-controlled study; type: in vivo
From the text: A double blinded, placebo-controlled, non-randomized laboratory study to assess activity and safety was completed in 15 mature purpose-bred beagles and mongrels over a period of 28 days. The four males and 11 females ranged in age from 4-11 years, with a mean of 7.75 years. Body weights for beagles (n=12) were 9.5-15 kg and for mongrels (n=3) 24-40 kg. The animals were fitted with activity collars and housed in a room that allowed free movement for ˜ nine hours per day. They received three enrichment periods of 15 minutes per day consisting of interaction with caretakers. The activity of the animals was tracked 24 hours per day using actigraphy (accelerometers attached to the animal's collar) and force plate analysis for assessing changes to gait. A modified canine cognitive dysfunction rating (CCDR) (Madari et al., “Assessment of Severity and Progression of Canine Cognitive Dysfunction Syndrome Using the Canine Dementia Scale (CADES),” Applied Animal Behaviour Science 171: 138-145 (2015), which is hereby incorporated by reference in its entirety) and canine orthopedic index (COI) (Brown, D., “The Canine Orthopedic Index. Step 1: Devising the Items,” Veterinary Surgery 43: 232-240 (2014); Brown, D., “The Canine Orthopedic Index. Step 2: Psychometric Testing,” Veterinary Surgery 43: 241-246 (2014); and Brown, D., “The Canine Orthopedic Index. Step 3: Responsiveness Testing,” Veterinary Surgery 43: 247-254 (2014), which are hereby incorporated by reference in their entirety) were completed pretreatment, and on days 14 and 28. Physical examination, body weight, body condition score (BCS) and complete blood count and blood chemistry were evaluated pretreatment and weekly. The animals were dosed orally with capsules daily after an overnight fast.

aged C56BL/6 male mice = assay: Frailty measurements in aged mice (Frailty Index, FRIGHT Age, AFRAID score); type: in vivo
Protocol: Frailty was measured in aged C56BL/6 male mice, starting at 18 months old (n=50 per group) monthly, over time compared with placebo-treated controls. NaR was administered in the water in low and high dosages of 60 and 400 mg/kg. The animals were group housed 4 per cage and the water was changed weekly. The animals were fed ad libitum and received daily photoperiods of approximately 12 hours of light alternating with 12 hours of darkness.
Three validated scoring methods, Frailty Index (Whitehead et al., “A clinical frailty index in aging mice: Comparisons with frailty index data in humans” J Gerontol A Biol Sci Med Sci. 69:621-632(2014)), FRIGHT Age (Schultz et al., “Age and life expectancy clocks based on machine learning analysis of mouse frailty” Nature Comm. 11(1):4618 (2020)) and AFRAID score (Schultz et al., “Age and life expectancy clocks based on machine learning analysis of mouse frailty” Nature Comm. 11(1):4618 (2020)) were conducted at 25 months of age. […]

NAD = assay: Bioavailability and pharmacokinetics of NaR and fisetin: whole blood NAD (Example 6, Studies #1 and #2); type: in vivo, Canis familaris (dog)/Beagle
Protocol: A series of pharmacokinetic studies were conducted to evaluate the bioavailability of a series of dosages and dosing regimens as measured in whole blood in non-fasted, adult Beagle dogs. NaR, NMN, Fisetin, individually and combination dosing (NaR-Fisetin and NMN-Fisetin) were tested.
Tables 1 and 2 show the dosing regimens of Study #1 conducted over 7 days and Study #2 conducted over 28 days, respectively. In Study #1, three dosage combinations were tested (Groups 1-3). An additional group (Group 4) was included to test the effects of fasting on the whole blood concentration of NAD. In Study #2, the effects of each compound individually and in combination were evaluated (Groups 1-3). Study #2 contained another test group (Group 4), which was included to compare the effects of NMN vs NaR in combination with Fisetin by Day 7 to determine if the effects seen on NAD concentration were unique to NaR vs. NAD booster, in general. Baseline NAD concentrations sampled over 24 hours on day −7 served as controls for endogenous NAD concentrations.
Two mL blood samples were collected at each time point using K2EDTA as an anticoagulant from all animals in each dose group. A sample was obtained prior to dosing (Day −7 pre-dose). On Day −7, groups 1-3 had 1 sample collected prior to feeding, and at times 0, 0.25, 0.5, 1, 2, 4, 6, 8, 12, and 24 hours post-Time Zero. On Day 2, groups 1-3 had 1 sample collected prior to feeding (˜2 hr prior to Time Zero) and at times 0, 0.25, 0.5, 1, 2, 4, 6, 8, 12, and 24 hours post-dose. On Days 3-5, samples were collected 2 hours post-dose, and on Day 7 samples were collected prior to feeding Groups 1-3 (˜2 hours prior to Time Zero) from all animals, and at time points 0.25, 0.5, 1, 2, 4, 6, 8, 12, and 24 hours post-dose.
For Group 2, on Day 21, post-dosing, and on Day 35, one sample was collected prior to feeding, and at times 0, 0.25, 0.5, 1, 2, 4, 6, 8, 12, and 24 hours post-Time Zero. The samples were processed for NAD+.
Two mL blood samples were collected at each time point using K2EDTA as an anticoagulant from all animals in each dose group. On Day 0 each group had 1 sample collected at times 0, 0.5, 1, 2, 4, 8, and 12 hours post-Time Zero. On Days 1, 2, 3, and 7, each group had 1 sample collected at times 0, 0.5, 1, 2, 4, 8, and 12 hours post-dose. On Days 14, 21, and 28 Groups 1-3 had samples taken at 0, 0.5, 1, 2, and 12 hours post-dose.
Immediately after collection, the sample tubes were inverted multiple times to ensure homogenization, then placed in an ice water bath until analysis. All samples were processed for NAD+ analysis and Fisetin analysis.
The bioanalytical data was used in the generation of a pharmacokinetic data using parameters calculated for each individual animal for Days 2 and 7, including: Tmax, Cmax, AUC0-24 and T½, as described in the previous examples, and the effect of repeat dosing on exposure was assessed by statistical analyses, e.g., mean and standard deviation for numerical parameters.

[2] = Beagle dogs, oral NaR 10, 20, 30 mg/kg/day, post dose
[3] = beagles, oral gavage, highest dosage tested
[4] = beagles, oral gavage, single 100-2000 mg/kg and 7-day 100-1000 mg/kg
[5] = treated dogs compared with controls, oral capsules daily, 28 days
[6] = Beagle dogs, all dosing regimens of Studies #1 and #2

What does the source list for `O=C([O-])c1ccc[n+]([C@@H]2O[C@H](CO)[C@@H](O)[C@H]2O)c1` [NaR, nicotinic acid riboside]?
test article-related effects on mortality or moribundity, clinical observations, body weight, food consumption; tolerability (male Beagle dogs): no test article-related effects; also recorded: well tolerated; Median Tmax of NAD+ in treated whole blood (NAD+; [2]): less than 2 hours; Tmax of NAD+, range of values (NAD+; [2]): 0 to 2 h; NAD+ levels after oral capsule administration (NAD+; Beagle dogs, oral capsule, 10-30 mg/kg/day, 7 days): measurable increases; Mean Cmax of NAD+, change between Day 1 and Day 7 (NAD+; all dose groups (10, 20, 30 mg/kg/day)): accumulation; also recorded: increase; NAD+ Cmax ratio between Day 7 and Day 1, individual animals (NAD+; highest dose group (30 mg/kg/day) compared to the others): clear increase; NAD+ AUC0-24 ratio between Day 7 and Day 1, individual animals (NAD+; mid dose group (20 mg/kg/day) compared to the other two groups): higher value; Bioavailability (conclusion from NAD+ bioanalysis) (NAD+; oral capsule, Beagle dogs): bioavailable; increase in sorbitol dehydrogenase (SDH) activity (purpose-bred beagles; 300 and 1000 mg/kg males, 300 mg/kg females, Day 2 vs pretreatment, low magnitude (e.g., 0 U/L to 2 U/L)): non-adverse; maximum tolerated dosage, 7-day repeat dosing phase (purpose-bred beagles; [3]): 1000 mg/kg/day; maximum tolerated dosage, single dosing phase (purpose-bred beagles; [3]): 2000 mg/kg; Body weights and food consumption (purpose-bred beagles; [4]): unaffected by treatment; Survival (purpose-bred beagles; [4]): All animals survived; treatment related clinical observations (purpose-bred beagles; [4]): no treatment related clinical observations; adverse clinical observations ([1]; oral capsules daily, 28 days): No adverse clinical observations; blood chemistry and hematology results ([1]; oral capsules daily, 28 days): remained within the reference ranges; canine cognitive dysfunction rating (CCDR) and canine orthopedic index (COI) ([1]; pretreatment, days 14 and 28): No changes; movement when resting (sleep), actigraphy [1, 5]: less movement when resting; overall activity (frequency and intensity), diurnal rhythm, actigraphy [1, 5]: increase in overall activity; Frailty vs controls, both treatment groups (60 and 400 mg/kg) (aged C56BL/6 male mice; in two of the three methods): significantly different; Frailty vs controls by all three methods (Frailty Index, FRIGHT Age, AFRAID score) (aged C56BL/6 male mice; low dose 60 mg/kg in the water, end of the study, p<0.05): significantly less frail; median AUC0-24 of whole blood NAD (NAD; [6]): 133,000 ng·h/mL; median Cmax of whole blood NAD (NAD; [6]): 6990 ng/mL; NAD concentration from Day 7 to Day 28 (NAD; NaR only dosing, 20 mg/kg): decrease; NAD concentration from Day 1 to Day 7 (NAD; NaR only dosing, all dose levels): increase; AUC and NAD concentrations, NaR only dose levels compared (NAD; NaR only, dose of 20 mg/kg): highest AUC and NAD concentrations

`O=c1c(O)c(-c2ccc(O)c(O)c2)oc2cc(O)ccc12` [fisetin, 3,3′,4′,7-tetrahydroxyflavone] was tested. Which “NAD concentration at Day 28” value (NAD; fisetin only dosing) did it give?
Its value is “returned to baseline”.

And the “NAD concentration at days 7, 14 and 21” value (NAD; fisetin only dosing)?
The value was “decreased”.

What about the “whole blood NAD concentration” value (NAD; fisetin only dosing, 20 mg/kg) of the same compound?
The value was “below 7000 ng/mL”.
